Results published in patent US10858344B2, “Hydantoin containing deoxyuridine triphosphatase inhibitors” (CV6 Therapeutics (NI) Limited, priority 2016, dated 2020).

Biological target: recombinant human deoxyuridine nucleotidohydrolase (dUTPase) (Homo sapiens (Human), UniProt P33316)
Test: fluorescence-based dUTPase inhibition assay
Type: biochemical
Details: for % relative inhibition vs. positive control: mean over three concentrations, typically 100, 50 and 25 μmol/L, compared to in-run positive control
From the text: Recombinant human deoxyuridine nucleotidohydrolase (dUTPase) is expressed and purified as described in Ladner R D, Carr S A, Huddleston M J, McNulty D E, Caradonna S J. J Biol Chem. 1996 Mar. 29; 271(13):7752-7. All drugs stocks are aliquoted and diluted as appropriate prior to use. The oligonucelotide primer, templates and fluorophore- and quencher-labeled detection probes are synthesized by Integrated DNA Technologies (Coralville, Iowa), subjected to polyacrylamide gel electrophoresis purification and reconstituted in Omnipur sterile nuclease-free water (EMD Chemicals USA, Gibbstown N.J.) at a stock concentration of 100 μmol/L. The two non-emissive (dark) quenching molecules incorporated into the detection probes include the Iowa black fluorescein quencher (IBFQ; absorption max 531 nm) and ZEN (non-abbreviation; absorption max 532 nm). The fluorescent label utilized is 6-FAM (5′-carboxyfluorescein; excitation max.=494 nm, emission max.=520 nm). Probes are further diluted to a working stock of 10 μmol/L and aliquoted to avoid repeated freeze/thaw cycles. AmpliTaq Gold DNA Polymerase, GeneAmp 10×PCR Buffer 2, MgCl2 and MicroAmp Optical 96-well Reaction Plates are purchased from Applied Biosystems (Carlsbad, Calif.). dNTPs are purchased individually at stock concentrations of 100 mmol/L from New England Biolabs at HPLC-certified >99% purity (Ipswich, Mass.).
Reaction mixtures contained primer, probe and template at an equimolar final concentration of 0.4 μmol/L. Magnesium chloride (MgCl2) is included at a final concentration of 2 mmol/L. Non-limiting dNTPs are included in the reaction mix in excess at a final concentration of 100 μmol/L (dUTP/dTTP is excluded). AmpliTaq Gold DNA polymerase is added at 0.875 U/reaction, 2.5 μl of 10×PCR buffer 2 added and nuclease-free ddH2O added to a final reaction volume of 25 μl. For dUTP inhibition analysis, the volume of ddH2O is further modified to accommodate an additional 1 μl of dUTPase (10 ng/μl) and 1 μl of inhibitor or DMSO control. Thermal profiling and fluorescence detection is performed using a customized thermal program on board a Roche Lightcycler LC480 Instrument II. For analysis of dNTPs, the thermal profile consisted of an 8 min 37° C. step followed by a 10 min 95° C. step to ‘hot-start’ the Taq polymerase and a primer extension time of up to 30 min at 60° C. Raw fluorescence spectra for 6-FAM is measured at specified time intervals to follow assay progression on board a Roche LightCycler 480 Software Version 1.5 and exported and analyzed in Microsoft Excel (Microsoft, Redmond Wash.) and Prism (GraphPad Software, La Jolla Calif.). Fluorescence values for blank reactions (limiting dNTP omitted) are subtracted to give normalized fluorescence units (NFU) to account for background fluorescence.
Test compounds are screened in a fluorescence-based assay. The assay employs a DNA polymerase-based approach utilizing an oligonucleotide template with 3 distinct regions: a 3′ primer binding region, a mid-template dUTP/thymidine triphosphate (TTP) detection region and a 5′ 6-[…] (FAM)-labeled probe binding region that incorporates a black hole quenching moiety. During the reaction, the probe and primer hybridize to the oligonucleotide template to form the template:primer:probe complex. When Taq polymerase binds to the primer in the TPP complex and dUTP is present, successful extension of the nascent strand occurs and the inherent 5′ to 3′ exonuclease activity of Taq polymerase cleaves and displaces the 6-FAM-labeled probe in a 5′ to 3′ direction, releasing the 6-FAM fluorophore from its proximity to the three quenchers. This displacement effectively disrupts the Förster resonance energy transfer (FRET) and the resulting fluorescence detected upon excitation is directly proportional to the amount of the dUTP available in the assay for incorporation. […]

Sequence of recombinant human deoxyuridine nucleotidohydrolase (dUTPase) (P33316 other isoform, or with tags, fused parts or gaps): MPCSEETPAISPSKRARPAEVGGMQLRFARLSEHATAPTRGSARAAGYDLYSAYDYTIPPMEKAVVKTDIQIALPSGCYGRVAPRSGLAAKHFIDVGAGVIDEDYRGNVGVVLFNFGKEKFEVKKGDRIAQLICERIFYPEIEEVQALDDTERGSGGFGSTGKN

SMILES | % relative inhibition vs. positive control [%] | IC50 [µM]
CC(C)COc1cc(C2(NS(=O)(=O)CCCCCN3C(=O)NC(=O)C3(C)C)CC2)ccc1F [118b, 5-(5,5-dimethyl-2,4-dioxoimidazolidin-1-yl)-N-(1-(4-fluoro-3-isobutoxyphenyl)cyclopropyl)pentane-1-sulfonamide] | 19 | 
CC(C)COc1cc([C@@H](C)NS(=O)(=O)CC/C=C/CN2C(=O)NC(=O)[C@H]2C)ccc1F [Compound 108a, (E)-N—((R)-1-(4-fluoro-3-isobutoxyphenyl)ethyl)-5-((R)-5-methyl-2,4-dioxoimidazolidin-1-yl)pent-3-ene-1-sulfonamide] | 123 | 
C[C@@H](NS(=O)(=O)CCCCCN1CC(=O)NC1=O)c1ccc(F)c(OCC(=O)O)c1 [Example 101, (R)-2-(5-(1-((5-(2,4-dioxoimidazolidin-1-yl)pentyl)sulfonamido)ethyl)-2-fluorophenoxy)acetic acid] | 4 | 20
C[C@H](NS(=O)(=O)CCCCCN1CC(=O)NC1=O)c1ccc(F)c(OCCC2CC2)c1 [compound 128, (S)—N-(1-(3-(2-cyclopropylethoxy)-4-fluorophenyl)ethyl)-5-(2,4-dioxoimidazolidin-1-yl)pentane-1-sulfonamide] | 53 | 
C[C@H]1C(=O)NC(=O)N1COCCCS(=O)(=O)NC1(c2ccc(F)c(OCC3CC3)c2)CC1 [compound 124, (S)—N-(1-(3-(cyclopropylmethoxy)-4-fluorophenyl)cyclopropyl)-3-((5-methyl-2,4-dioxoimidazolidin-1-yl)methoxy)propane-1-sulfonamide] | 153 | 
CC1(C)C(=O)NC(=O)N1C/C=C/CCS(=O)(=O)NC1(c2ccc(F)c(OCC(F)F)c2)CC1 [compound 121, (E)-N-(1-(3-(2,2-difluoroethoxy)-4-fluorophenyl)cyclopropyl)-5-(5,5-dimethyl-2,4-dioxoimidazolidin-1-yl)pent-3-ene-1-sulfonamide] | 21 | 
O=C1CN(C/C=C/CCCNS(=O)(=O)c2cccc(OCC3CC3)c2)C(=O)N1 [Example 79, (E)-3-(cyclopropylmethoxy)-N-(6-(2,4-dioxoimidazolidin-1-yl)hex-4-en-1-yl)benzenesulfonamide] | 139 | 
CC1(C)C(=O)NC(=O)N1CCCCCS(=O)(=O)NC1(c2ccc(F)c(OCC3CC3)c2)CC1 [119b, N-(1-(3-(cyclopropylmethoxy)-4-fluorophenyl)cyclopropyl)-5-(5,5-dimethyl-2,4-dioxoimidazolidin-1-yl)pentane-1-sulfonamide] | 23 | 
O=C1CN(CCCCCS(=O)(=O)NC2CCc3c2ccc(F)c3OCC2CC2)C(=O)N1 (centres unmarked) [Example 105, N-(4-(cyclopropylmethoxy)-5-fluoro-2,3-dihydro-1H-inden-1-yl)-5-(2,4-dioxoimidazolidin-1-yl) pentane-1-sulfonamide] | 36 | 
C[C@@H](NS(=O)(=O)CCCCCN1CC(=O)NC1=O)c1ccc(F)c(OC2CCC2)c1 [Example 83, (R)—N-(1-(3-cyclobutoxy-4-fluorophenyl)ethyl)-5-(2,4-dioxoimidazolidin-1-yl)pentane-1-sulfonamide] | 37 | 2

Now from value to molecule:

% relative inhibition vs. positive control [%] | IC50 [µM] | SMILES
27 |  | CC(C)C(NS(=O)(=O)CCCCCN1CC(=O)NC1=O)c1ccc(F)c(OCC2CC2)c1 (centres unmarked) [Example 103, N-(1-(3-(cyclopropylmethoxy)-4-fluorophenyl)-2-methylpropyl)-5-(2,4-dioxoimidazolidin-1-yl)pentane-1-sulfonamide]
5 | 14 | C[C@@H](NS(=O)(=O)CCCCCN1CC(=O)NC1=O)c1ccc(F)c(OCC2CCOCC2)c1 [Example 100, (R)-5-(2,4-dioxoimidazolidin-1-yl)-N-(1-(4-fluoro-3-((tetrahydro-2H-pyran-4-yl)methoxy)phenyl)ethyl) pentane-1-sulfonamide]
182 |  | [2H]C([2H])(Oc1cc([C@@H](C)NS(=O)(=O)CCCCCN2CC(=O)NC2=O)ccc1F)C1CC1 [Example 97, (R)—N-(1-(3-(cyclopropylmethoxy-d2)-4-fluorophenyl)ethyl)-5-(2,4-dioxoimidazolidin-1-yl)pentane-1-sulfonamide]
1 | 150 | C[C@@H](NS(=O)(=O)CCCCCN1CC(=O)NC1=O)c1ccc(F)c(OC[C@@H]2CCCN2C)c1 [Example 91, 5-(2,4-dioxoimidazolidin-1-yl)-N—((R)-1-(4-fluoro-3-(((S)-1-methylpyrrolidin-2-yl)methoxy)phenyl)ethyl)pentane-1-sulfonamide]
93 | 0.8 | C[C@@H](NS(=O)(=O)CCCCCN1CC(=O)NC1=O)c1ccc(F)c(OCC2CCC2)c1 [Example 88, (R)—N-(1-(3-(cyclobutylmethoxy)-4-fluorophenyl)ethyl)-5-(2,4-dioxoimidazolidin-1-yl)pentane-1-sulfonamide]
20 | 3.75 | C[C@@H](NS(=O)(=O)CCCCCN1CC(=O)N(C(=O)OC(C)(C)C)C1=O)c1ccc(F)c(OCC2CC2)c1 [Example 93]
172 |  | O=C1CN(COCCCS(=O)(=O)NC2(c3ccc(F)c(OCC4CC4)c3)CC2)C(=O)N1 [compound 120, N-(1-(3-(cyclopropylmethoxy)-4-fluorophenyl)cyclopropyl)-3-((2,4-dioxoimidazolidin-1-yl)methoxy)propane-1-sulfonamide]
37 | 2 | CC(Oc1cc([C@@H](C)NS(=O)(=O)CCCCCN2CC(=O)NC2=O)ccc1F)C1CC1 (stereo partly drawn) [Example 90, N—((1R)-1-(3-(1-cyclopropylethoxy)-4-fluorophenyl)ethyl)-5-(2,4-dioxoimidazolidin-1-yl)pentane-1-sulfonamide]
1 | 150 | C[C@@H](NS(=O)(=O)CCn1ccc(N2CC(=O)NC2=O)n1)c1ccc(F)c(OCC2CC2)c1 [Example 106, (R)—N-(1-(3-(cyclopropylmethoxy)-4-fluorophenyl)ethyl)-2-(3-(2,4-dioxoimidazolidin-1-yl)-1H-pyrazol-1-yl)ethane-1-sulfonamide]
154 |  | C[C@@H](NS(=O)(=O)CCCCCN1C(=O)NC(=O)[C@@H]1C)c1ccc(F)c(OCC2CC2)c1 [Compound 107b, N—((R)-1-(3-(cyclopropylmethoxy)-4-fluorophenyl)ethyl)-5-((S)-5-methyl-2,4-dioxoimidazolidin-1-yl)pentane-1-sulfonamide]
25 | 3 | C[C@@H](NS(=O)(=O)CCCCCN1CC(=O)NC1=O)c1ccc(F)c(OC2CCOCC2)c1 [Example 98, (R)-5-(2,4-dioxoimidazolidin-1-yl)-N-(1-(4-fluoro-3-((tetrahydro-2H-pyran-4-yl)oxy)phenyl)ethyl)pentane-1-sulfonamide]
1 | 150 | C[C@@H](NS(=O)(=O)CCCCCN1CC(=O)NC1=O)c1ccc(F)c(OS(=O)(=O)C(F)(F)F)c1 [Example 94, (R)-5-(1-((5-(2,4-dioxoimidazolidin-1-yl)pentyl)sulfonamido)ethyl)-2-fluorophenyl trifluoromethanesulfonate]
